The record followed here is paper PMC11345504 (Current Research in Insect Science, 2024).

In assay [1] the target is T1, RpalOR1 (Rhynchophorus palmarum, UniProt A0A8A5RCH6).
T1 sequence (A0A8A5RCH6 1-411): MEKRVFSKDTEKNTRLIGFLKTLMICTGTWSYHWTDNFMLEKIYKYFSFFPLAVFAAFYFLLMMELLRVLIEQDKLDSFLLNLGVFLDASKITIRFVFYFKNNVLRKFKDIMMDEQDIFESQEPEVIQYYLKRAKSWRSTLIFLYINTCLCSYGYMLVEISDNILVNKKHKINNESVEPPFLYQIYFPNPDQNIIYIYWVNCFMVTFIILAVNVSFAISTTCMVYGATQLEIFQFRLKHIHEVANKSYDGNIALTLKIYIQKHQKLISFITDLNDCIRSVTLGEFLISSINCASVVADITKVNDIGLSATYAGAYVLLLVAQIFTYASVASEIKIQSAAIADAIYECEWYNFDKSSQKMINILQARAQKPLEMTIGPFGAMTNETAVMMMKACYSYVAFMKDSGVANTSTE
T1 sequence (Q9VNB5 1-486 partner): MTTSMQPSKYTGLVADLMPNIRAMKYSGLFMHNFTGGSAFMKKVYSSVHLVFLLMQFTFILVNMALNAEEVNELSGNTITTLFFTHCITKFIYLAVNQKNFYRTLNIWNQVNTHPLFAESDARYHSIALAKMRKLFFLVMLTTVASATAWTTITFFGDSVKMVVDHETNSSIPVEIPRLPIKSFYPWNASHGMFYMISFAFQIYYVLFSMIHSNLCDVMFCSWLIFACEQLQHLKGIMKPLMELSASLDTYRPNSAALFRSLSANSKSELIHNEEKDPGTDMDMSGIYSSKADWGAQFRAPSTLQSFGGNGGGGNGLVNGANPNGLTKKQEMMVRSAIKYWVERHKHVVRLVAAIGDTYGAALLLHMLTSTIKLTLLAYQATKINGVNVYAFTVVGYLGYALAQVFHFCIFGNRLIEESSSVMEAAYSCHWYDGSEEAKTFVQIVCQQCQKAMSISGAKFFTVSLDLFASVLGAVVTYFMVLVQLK
Description: single-sensillum recording, Drosophila at1 OSNs. The class given is cell-based. The note with it: 500 ms, agonist.

Assay [2] addresses T1, RpalOR1. Put plainly: single-sensillum recording, Drosophila at1 OSNs. The note with it: 1 µg in hexane on stimulus cartridge, 500 ms; agonist. The class given is cell-based.
In another assay the target is T2, RferOR1 (Rhynchophorus ferrugineus, UniProt A0A4P8W8S8).
T2 sequence (A0A4P8W8S8 1-411): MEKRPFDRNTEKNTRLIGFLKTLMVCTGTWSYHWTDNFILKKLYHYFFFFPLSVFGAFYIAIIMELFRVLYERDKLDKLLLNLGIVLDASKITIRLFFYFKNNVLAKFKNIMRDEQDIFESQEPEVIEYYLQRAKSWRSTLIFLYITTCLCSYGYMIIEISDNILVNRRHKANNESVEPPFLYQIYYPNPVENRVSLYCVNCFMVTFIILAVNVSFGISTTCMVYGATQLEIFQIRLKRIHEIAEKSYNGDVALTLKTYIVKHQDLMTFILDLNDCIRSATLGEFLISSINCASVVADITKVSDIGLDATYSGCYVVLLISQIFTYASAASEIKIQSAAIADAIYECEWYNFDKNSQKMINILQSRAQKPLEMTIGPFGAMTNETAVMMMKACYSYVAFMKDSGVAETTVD
T2 sequence (Q9VNB5 1-486 partner): T1 sequence (Q9VNB5 1-486 partner)
Description: single-sensillum recording, Drosophila at1 OSNs. The assay is classed as cell-based. The settings on record: […] µg in paraffin oil on stimulus cartridge, […] ms; agonist.

The target in assay [3] is T1, RpalOR1. The settings on record: 100 µg in paraffin oil on stimulus cartridge, 500 ms; agonist.
The mark [4] stands for this setting: 1 µg in hexane on stimulus cartridge.
[5] abbreviates: 100 µg in paraffin oil on stimulus cartridge.

Turning to `CCCC(=O)C(C)CCC` (stereo not drawn) [5-methyloctan-4-one], the “single-sensillum recording, Drosophila at1 OSNs” value (“single-sensillum recording” for short) at RpalOR1 [1] (setting [4]) is given as “We also found a response to 5-methyloctan-4-one”. As to `C/C=C/C(O)CCCC` (stereo not drawn) [(E)‑oct-2-en-4-ol], on RpalOR1 [1] (setting [4]), the “single-sensillum recording” value is “The two last agonists were (E)‑oct-2-en-4-ol and nonan-5-one”. For the compound `C/C=C/C(O)C(C)CC` (stereo not drawn) [(E)−5-methylhept-2-en-4-ol], the “average response at 1 μg” value on RpalOR1 [2] is listed as 27 action potentials per second.

`CCCCOC(=O)CCC` [butyl butyrate]: the “single-sensillum recording” value at RferOR1 is reported as “significantly activated by the same palm tree esters: propyl butyrate, butyl butyrate”; at RpalOR1 [1] (setting [5]), “significantly activated by the same palm tree esters: propyl butyrate, butyl butyrate”. Consider `CCCCCC(=O)OCC` [ethyl hexanoate], for which the “single-sensillum recording” value is “propyl butyrate, butyl butyrate, ethyl valerate and ethyl hexanoate” at RferOR1; “propyl butyrate, butyl butyrate, ethyl valerate and ethyl hexanoate” on RpalOR1 [1] (setting [5]).

For `CCCCC(=O)OCC` [ethyl valerate], on RpalOR1 [1] (setting [5]), the “single-sensillum recording” value was “propyl butyrate, butyl butyrate, ethyl valerate and ethyl hexanoate”. `CCCCC(O)C(C)CCC` (stereo not drawn) [ferrugineol, 4-methylnonan-5-ol]: the “average response at 1 μg” value on RpalOR1 [2] is on record as 112 action potentials per second. For the compound `CCCCC(=O)C(C)CCC` (stereo not drawn) [ferrugineone, 4-methylnonan-5-one], the “average response at 1 μg” value on RpalOR1 [2] is given as 103 action potentials per second. As to `CCCCC(O)CCCC` [nonan-5-ol], the “single-sensillum recording” value at RpalOR1 [1] (setting [4]) is reported as “RpalOR1 was activated by phoenicol as well as nonan-5-ol”.

`CCCCC(=O)CCCC` [nonan-5-one]: the “single-sensillum recording” value on RpalOR1 [1] (setting [4]) is “The two last agonists were (E)‑oct-2-en-4-ol and nonan-5-one”. With `CCCCC(O)C(C)CC` (stereo not drawn) [phoenicol, 3-methyloctan-4-ol], on RpalOR1 [1] (setting [4]), the “single-sensillum recording” value is “RpalOR1 was activated by phoenicol as well as nonan-5-ol”. With `CCCOC(=O)CCC` [propyl butyrate], on RpalOR1 [3], the “average response at 100 μg” value was 63 action potentials per second. Further, the “single-sensillum recording” value at RferOR1 was “both RpalOR1 and RferOR1 were significantly activated by the same palm tree esters: propyl butyrate”.
